Values quoted from earlier work as cited in publication PMC9884426, “A phase 1 clinical trial of the repurposable acetyllysine mimetic, n-methyl-2-pyrrolidone (NMP), in relapsed or refractory multiple myeloma” (Clinical Epigenetics, 2023).

Design: method as in PMID 9029058
Details: human, cited from earlier work; for amount found in urine: after a single 100 mg oral dose of NMP; for elimination half-life: NMP metabolites

Structure (SMILES) | amount found in urine | elimination half-life
CN1C(=O)CCC1O (centres unmarked) [5-HNMP, 5-hydroxy-N-methyl-2-pyrrolidone] | 44% | –
CN1C(=O)CCC1=O [MSI, N-methylsuccinimide] | 0.4% | 8 h
CN1C(=O)CC(O)C1=O (centres unmarked) [2-HMSI, 2-hydroxy-N-methylsuccinimide] | 20% | 17 h
